ChEMBL document CHEMBL4330157, “Lycopodium Alkaloids: Lycoplatyrine A, an Unusual Lycodine-Piperidine Adduct from Lycopodium platyrhizoma and the Absolute Configurations of Lycoplanine D and Lycogladine H” (J Nat Prod, 2019)

Biological target: Acetylcholinesterase (Homo sapiens, UniProt P22303)
Assay: Inhibition of AChE (unknown origin) using acetylthiocholine as substrate preincubated for 15 mins followed by substrate addition measured every minute for 15 mins by Ellman's method

Acetylcholinesterase, sequence (P22303 whole entry): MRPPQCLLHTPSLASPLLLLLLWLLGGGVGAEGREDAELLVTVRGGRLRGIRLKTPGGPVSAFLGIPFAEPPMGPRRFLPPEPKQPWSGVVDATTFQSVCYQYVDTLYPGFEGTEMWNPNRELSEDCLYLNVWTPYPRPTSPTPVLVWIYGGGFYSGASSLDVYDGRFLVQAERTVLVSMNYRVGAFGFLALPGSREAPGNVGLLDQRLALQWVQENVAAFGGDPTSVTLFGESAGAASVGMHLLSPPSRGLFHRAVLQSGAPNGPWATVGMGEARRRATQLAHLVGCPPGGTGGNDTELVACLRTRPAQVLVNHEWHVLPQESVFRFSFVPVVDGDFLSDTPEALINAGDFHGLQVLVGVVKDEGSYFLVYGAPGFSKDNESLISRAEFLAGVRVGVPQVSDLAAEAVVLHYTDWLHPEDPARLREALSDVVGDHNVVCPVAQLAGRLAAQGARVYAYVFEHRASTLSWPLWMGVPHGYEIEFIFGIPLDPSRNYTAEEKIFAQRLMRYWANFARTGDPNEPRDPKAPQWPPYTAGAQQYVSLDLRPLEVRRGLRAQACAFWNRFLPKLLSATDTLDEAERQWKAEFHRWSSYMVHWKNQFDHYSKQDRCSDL

| SMILES | IC50 |
| --- | --- |
| C[C@@H]1C[C@H]2Cc3ncc(C4CCCCN4)cc3[C@]3(C1)NCCC[C@H]23 (stereo partly drawn) | > 30 µM |
| C=C[C@@H]1[C@@H]2CC3=C(CCC(=O)N3)[C@@]1(N)C[C@H](C)C2 | > 30 µM |
| CC1C[C@H]2[C@H](O)[C@@H]3O[C@]4(C1)OC1CCN5CCCC24[C@]13C5 (stereo partly drawn) | > 30 µM |
